# According to patent publication US20200267989A1, “PARASITE TREATMENT COMPOUND” (University of Maine System Board of Trustees, priority 2017, published 2020):
# Several values for one entry are separate records, joined by “and”; a condition that tells them apart may be missing. Equal values may be shown once.
# Tests used:
# [1] = previously known pesticide treatment; cited from earlier work
# Atlantic salmon = assay: KCl bath treatment of Atlantic salmon: adverse effects on the fish; type: in vivo
# Protocol: (§1) A 0.48% (4.8 g/L-4.8 ppt) pharmaceutical grade KCl compound was tested on 30 Atlantic salmon that were infected with sea lice. The fish and the compound were added to a tank filled with seawater. After 30 minutes 15 fish were removed and placed in a recovery bath of seawater, and at 60 minutes the remaining 15 fish were removed.
# (§2) A 0.43% % (4.3 g/L-4.3 ppt) agricultural grade KCl compound was tested on Atlantic salmon that were infected with sea lice. After 10 minutes the fish began showing agitation that increased until the 30 minute mark. Fish began losing equilibrium and began to roll over and stop respiring by 20 minutes.
# (§3) A water holding tank was filled with fresh well water at 10° C.+−2° C. A 0.5% % (5.0 g/L-5.0 ppt) agricultural grade KCl solution was added to the water. A number of farm-raised Atlantic salmon that were infected with sea lice were added to the tank.
# (§4) A water holding tank was filled with fresh well water at 10° C.+−2° C. A 0.2% % (2.0 g/L-2.0 ppt) agricultural grade KCl solution was added to the water. A number of farm-raised Atlantic salmon that were infected with sea lice were added to the tank.
# sea lice [2] = assay: KCl bath treatment of sea-lice-infected Atlantic salmon: sea lice detachment; type: in vivo
# Protocol: as §1, §2, §3, §4
# sea lice [3] = assay: Pilot laboratory trial: KCl pre-treatment plus mechanical devices for removal of sea lice from Atlantic salmon; type: in vivo
# Protocol: A pilot laboratory trial was run using various forms of mechanical devices for removal of sea lice from Atlantic salmon (ATS). The effectiveness of the mechanical devices at removing/detaching lice was measured with and without KCl pretreatment, and the results compared.
# The experiment consisted of testing 3 mechanical devices on lice infested Atlantic salmon (ATS) in seawater and then on lice infested Atlantic salmon that had been pre-treated in seawater with KCL at 4 part per thousand (PPT) or 2 PPT for 5 or 15 minutes. The mechanical treatment referred to as Treatment A in Table 1 was a water spray apparatus including multiple jets in a roughly circular arrangement, and treatments B and C in Table 1 were alternative mechanical treatments. Each treatment group was run separately with two fish were staggered by 15 minutes to facilitate counting lice, except for Treatment C as both fish were placed together. The treatment groups were as follows: • 1) Treatment A with seawater (2 fish) • 2) Treatment A with sea water plus KCL 4 PPT, 15 minutes (2 fish) • 3) Treatment B with seawater (2 fish) • 4) Treatment B with sea water plus KCL 4 PPT, 15 minutes (2 fish) • 5) Treatment A with seawater plus 2PPT, 15 minutes (1 fish) • 6) Treatment A with sea water plus KCL 4 PPT, 5 minutes (1 fish) • 7) Treatment C with seawater (2 fish) • 8) Treatment C sea water plus KCL 2 PPT (2 fish)
# Each treatment group was performed essentially as follows:
# Pre-Treatment before Treatment A, B, or C • 1) Take 1 fish and transfer it to Tank 1 (70 liter tank); • 2) Take 1 fish and transfer it to Tank 2, staggered (70 liter tank); • 3) Both tanks will be filled with seawater for Round 1 of a treatment group and seawater and KC1 4PPT X for Round 2 for a treatment; • 4) Fish swim around freely in treatment Tank 1 for 30 minutes; • 5) Fish swim around freely in treatment Tank 2 for 30 minutes;
# Evaluation of Pretreatment: • 1) Remove Fish from Tank 1; • 2) Place 1 Fish in Sedation Tank; • 3) Count detached lice in Tank 1; • 4) Remove 1 Fish from Sedation Tank; • 5) Count numbers of Lice on each fish (making sure to differentiate between the two tanks); • 6) Repeat for staggered Tank 2.
# Perform Mechanical Treatment: • 1) Pass fish through mechanical treatments (A, B or C) • 2) Count lice on fish
# [4] = Example 1: 0.48% (4.8 ppt) pharmaceutical grade KCl, seawater tank, 30 and 60 minutes
# [5] = Example 3: 0.5% (5.0 ppt) agricultural grade KCl, fresh well water at 10° C.
# [6] = Mechanical Treatment A, KCl 2 PPT in seawater, treatment time 15 min
# [7] = Mechanical Treatment A, KCl 4 PPT in seawater, treatment time 5 min
# [8] = Mechanical Treatment A, KCl 4 PPT in seawater, treatment time 15 min
# [9] = Mechanical Treatment B, KCl 4 PPT in seawater, treatment time 15 min
compound,measurement,setting,value
emamectin benzoate,time the pesticide can remain in the fish,[1],more than two months
"[Cl-].[K+] [KCl, potassium chloride]",adverse effects on the salmon,Atlantic salmon; [4],no noticeable adverse effects
same,"time by which fish began losing equilibrium, rolled over and stopped respiring",Atlantic salmon; Example 2: 0.43% (4.3 ppt) agricultural grade KCl,≤ 20 min
same,time after which fish began showing agitation,"Atlantic salmon; Example 2: 0.43% (4.3 ppt) agricultural grade KCl, agitation increased until the 30 minute mark",10 min
same,"time within which fish showed extreme agitation, began to lose equilibrium and respiration stopped",Atlantic salmon; [5],≤ 10 min
same,agitation or adverse effect on the fish,"Atlantic salmon; Example 4: 0.2% (2.0 ppt) agricultural grade KCl, fresh well water at 10° C., after 60 minutes",no agitation or adverse effect
same,sea lice detachment,sea lice [2]; [4],noticeable sea lice detachment
same,sea lice detachment,"sea lice [2]; Example 2: 0.43% (4.3 ppt) agricultural grade KCl, by agitation and thrashing of the dying fish",detached more lice
same,sea lice removal,sea lice [2]; [5],marked sea lice removal
same,sea lice detachment,"sea lice [2]; Example 4: 0.2% (2.0 ppt) agricultural grade KCl, fresh well water at 10° C., after 30 minutes",marked sea lice detachment
same,effectiveness on sea lice in freshwater compared with seawater,sea lice [2]; freshwater vs seawater,more effective
same,effect of KCl on effectiveness of mechanical treatments A and B at removing/detaching lice,sea lice [3]; KCl pretreatment in seawater before mechanical treatment,increases the effectiveness
same,# removed - mechanical + KCl,sea lice [3]; [6],90
same,# removed - mechanical treatment only,sea lice [3]; [6],39
same,% removed - mechanical + KCl,sea lice [3]; [6],78.3%
same,% removed - mechanical treatment only,sea lice [3]; [6],60.9%
same,Sealice counts: Detached in pre-treatment tank,sea lice [3]; [6],51
same,Sealice counts: On fish - finish,sea lice [3]; [6],25
same,Sealice counts: On fish - start of mechanical treatment,sea lice [3]; [6],64
same,# removed - mechanical + KCl,sea lice [3]; [7],117
same,# removed - mechanical treatment only,sea lice [3]; [7],65
same,% removed - mechanical + KCl,sea lice [3]; [7],80.7%
same,% removed - mechanical treatment only,sea lice [3]; [7],69.9%
same,Sealice counts: Detached in pre-treatment tank,sea lice [3]; [7],52
same,Sealice counts: On fish - finish,sea lice [3]; [7],28
same,Sealice counts: On fish - start of mechanical treatment,sea lice [3]; [7],93
same,# removed - mechanical + KCl,sea lice [3]; [8],99 and 115
same,# removed - mechanical treatment only,sea lice [3]; [8],19 and 16
same,% removed - mechanical + KCl,sea lice [3]; [8],91.7% and 99.1%
same,% removed - mechanical treatment only,sea lice [3]; [8],67.9% and 94.1%
same,Sealice counts: Detached in pre-treatment tank,sea lice [3]; [8],80 and 99
same,Sealice counts: On fish - start of mechanical treatment,sea lice [3]; [8],28 and 17
same,# removed - mechanical + KCl,sea lice [3]; [9],88 and 85
same,# removed - mechanical treatment only,sea lice [3]; [9],9 and 11
same,% removed - mechanical + KCl,sea lice [3]; [9],91.7% and 93.4%
same,% removed - mechanical treatment only,sea lice [3]; [9],52.9% and 64.7%
same,Sealice counts: Detached in pre-treatment tank,sea lice [3]; [9],79 and 74
same,Sealice counts: On fish - finish,sea lice [3]; [9],8 and 6
same,Sealice counts: On fish - start of mechanical treatment,sea lice [3]; [9],17
same,Sealice counts: On fish - finish,"sea lice [3]; Mechanical Treatment C, KCl 2 PPT in seawater, treatment time 5 min, lice not counted prior to treatment",35 and 31
same,removing/detaching lice by KCl pretreatment on its own,sea lice [3]; pretreatment at 4ppt and 2ppt in seawater,effective in removing/detaching lice on its own
same,effectiveness of KCl at 4ppt compared with 2ppt,sea lice [3]; seawater pretreatment,more effective
same,effectiveness of KCl at 4ppt for 15 minutes compared with 5 minutes,"sea lice [3]; seawater pretreatment, 4ppt",more effective
